Data published in patent publication US4442044A, “Process for preparing monoesters and diesters of N-alkyl substituted amino methyl phosphonic acid” (priority 1983, dated 1984).

Columns and labels:
Experiment in all cases: post-emergent herbicidal activity, greenhouse
Type in all cases: in vivo
Sugar Beet = conditions: Table II
Method in brief: (§1)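 Post-emergence foliar spray at tabulated application rates, using aliquots of a 1.0% stock in acetone, THF or water plus ~0.4% emulsifier, applied to 2–3-week-old greenhouse plants. Plant injury was rated relative to controls roughly two and four weeks after treatment.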

Smartweed = system: Smartweed
Method in brief: as §1

Barnyardgrass = system: Barnyardgrass
Method in brief: as §1

Rice = conditions: Table II
Method in brief: as §1

Hemp Sesbania = conditions: Table II
Method in brief: as §1

Crabgrass = conditions: Table II
Method in brief: as §1

Johnsongrass = conditions: Table I, 4 WAT
Method in brief: as §1

Quackgrass = conditions: Table I, 4 WAT
Method in brief: as §1

Wild Buckwheat = conditions: Table II
Method in brief: as §1

Sorghum = conditions: Table II
Method in brief: as §1

Soybean = conditions: Table II
Method in brief: as §1

Wheat = conditions: Table II
Method in brief: as §1

Downy Brome = system: Downy Brome
Method in brief: as §1

Lambsquarters = system: Lambsquarters
Method in brief: as §1

Morningglory = system: Morningglory
Method in brief: as §1

Panicum Spp = conditions: Table II
Method in brief: as §1

Yellow Nutsedge = conditions: Table I, 4 WAT
Method in brief: as §1

Canada Thistle = conditions: Table I, 4 WAT
Method in brief: as §1

Cocklebur = system: Cocklebur
Method in brief: as §1

Velvetleaf = system: Velvetleaf
Method in brief: as §1

## CCOC(=O)CNCP(=O)(O)OC(C)C(=O)OC (stereo not drawn) [Example 28, propanoic acid, 2-[[[[(2-ethoxy-2-oxoethyl)amino]methyl]hydroxyphosphinyl]oxy]-, methyl ester]
Sugar Beet; 2 WAT, 1.12 kg/h
  post-emergent herbicidal activity index: 0 (0-24% control)
Sugar Beet; 4 WAT, 5.6 kg/h
  post-emergent herbicidal activity index: 0 (0-24% control)
Smartweed; Table I, 4 WAT, 5.6 kg/h
  post-emergent herbicidal activity index: 0 (0-24% control)
Smartweed; Table I, 4 WAT, 11.2 kg/h
  post-emergent herbicidal activity index: 3 (75-99% control)
Smartweed; Table II, 2 WAT, 1.12 kg/h
  post-emergent herbicidal activity index: 0 (0-24% control)
Smartweed; Table II, 4 WAT, 5.6 kg/h
  post-emergent herbicidal activity index: 1 (25-49% control)
Barnyardgrass; Table I, 4 WAT, 5.6 kg/h
  post-emergent herbicidal activity index: 2 (50-74% control)
Barnyardgrass; Table I, 4 WAT, 11.2 kg/h
  post-emergent herbicidal activity index: 2 (50-74% control)
Barnyardgrass; Table II, 2 WAT, 1.12 kg/h
  post-emergent herbicidal activity index: 1 (25-49% control)
Barnyardgrass; Table II, 4 WAT, 5.6 kg/h
  post-emergent herbicidal activity index: 3 (75-99% control)
Rice; 2 WAT, 1.12 kg/h
  post-emergent herbicidal activity index: 0 (0-24% control)
Rice; 4 WAT, 5.6 kg/h
  post-emergent herbicidal activity index: 2 (50-74% control)
Hemp Sesbania; 2 WAT, 1.12 kg/h
  post-emergent herbicidal activity index: 0 (0-24% control)
Hemp Sesbania; 4 WAT, 5.6 kg/h
  post-emergent herbicidal activity index: 3 (75-99% control)
Crabgrass; 2 WAT, 1.12 kg/h
  post-emergent herbicidal activity index: 2 (50-74% control)
Crabgrass; 4 WAT, 5.6 kg/h
  post-emergent herbicidal activity index: 3 (75-99% control)
Johnsongrass; 5.6 kg/h
  post-emergent herbicidal activity index: 2 (50-74% control)
Johnsongrass; 11.2 kg/h
  post-emergent herbicidal activity index: 3 (75-99% control)
Quackgrass; 5.6 kg/h
  post-emergent herbicidal activity index: 0 (0-24% control)
Quackgrass; 11.2 kg/h
  post-emergent herbicidal activity index: 2 (50-74% control)
Wild Buckwheat; 2 WAT, 1.12 kg/h
  post-emergent herbicidal activity index: 0 (0-24% control)
Wild Buckwheat; 4 WAT, 5.6 kg/h
  post-emergent herbicidal activity index: 0 (0-24% control)
Sorghum; 2 WAT, 1.12 kg/h
  post-emergent herbicidal activity index: 0 (0-24% control)
Sorghum; 4 WAT, 5.6 kg/h
  post-emergent herbicidal activity index: 2 (50-74% control)
Soybean; 2 WAT, 1.12 kg/h
  post-emergent herbicidal activity index: 1 (25-49% control)
Soybean; 4 WAT, 5.6 kg/h
  post-emergent herbicidal activity index: 1 (25-49% control)
Wheat; 2 WAT, 1.12 kg/h
  post-emergent herbicidal activity index: 0 (0-24% control)
Wheat; 4 WAT, 5.6 kg/h
  post-emergent herbicidal activity index: 1 (25-49% control)
Downy Brome; Table I, 4 WAT, 5.6 kg/h
  post-emergent herbicidal activity index: 1 (25-49% control)
Downy Brome; Table I, 4 WAT, 11.2 kg/h
  post-emergent herbicidal activity index: 1 (25-49% control)
Downy Brome; Table II, 2 WAT, 1.12 kg/h
  post-emergent herbicidal activity index: 0 (0-24% control)
Downy Brome; Table II, 4 WAT, 5.6 kg/h
  post-emergent herbicidal activity index: 0 (0-24% control)
Lambsquarters; Table I, 4 WAT, 5.6 kg/h
  post-emergent herbicidal activity index: 0 (0-24% control)
Lambsquarters; Table I, 4 WAT, 11.2 kg/h
  post-emergent herbicidal activity index: 3 (75-99% control)
Lambsquarters; Table II, 2 WAT, 1.12 kg/h
  post-emergent herbicidal activity index: 0 (0-24% control)
Lambsquarters; Table II, 4 WAT, 5.6 kg/h
  post-emergent herbicidal activity index: 1 (25-49% control)
Morningglory; Table I, 4 WAT, 5.6 kg/h
  post-emergent herbicidal activity index: 1 (25-49% control)
Morningglory; Table I, 4 WAT, 11.2 kg/h
  post-emergent herbicidal activity index: 3 (75-99% control)
Morningglory; Table II, 2 WAT, 1.12 kg/h
  post-emergent herbicidal activity index: 1 (25-49% control)
Morningglory; Table II, 4 WAT, 5.6 kg/h
  post-emergent herbicidal activity index: 2 (50-74% control)
Panicum Spp; 2 WAT, 1.12 kg/h
  post-emergent herbicidal activity index: 0 (0-24% control)
Panicum Spp; 4 WAT, 5.6 kg/h
  post-emergent herbicidal activity index: 2 (50-74% control)
Yellow Nutsedge; 5.6 kg/h
  post-emergent herbicidal activity index: 1 (25-49% control)
Yellow Nutsedge; 11.2 kg/h
  post-emergent herbicidal activity index: 3 (75-99% control)
Canada Thistle; 5.6 kg/h
  post-emergent herbicidal activity index: 1 (25-49% control)
Canada Thistle; 11.2 kg/h
  post-emergent herbicidal activity index: 1 (25-49% control)
Cocklebur; Table I, 4 WAT, 5.6 kg/h
  post-emergent herbicidal activity index: 1 (25-49% control)
Cocklebur; Table I, 4 WAT, 11.2 kg/h
  post-emergent herbicidal activity index: 2 (50-74% control)
Cocklebur; Table II, 2 WAT, 1.12 kg/h
  post-emergent herbicidal activity index: 0 (0-24% control)
Cocklebur; Table II, 4 WAT, 5.6 kg/h
  post-emergent herbicidal activity index: 2 (50-74% control)
Velvetleaf; Table I, 4 WAT, 5.6 kg/h
  post-emergent herbicidal activity index: 0 (0-24% control)
Velvetleaf; Table I, 4 WAT, 11.2 kg/h
  post-emergent herbicidal activity index: 2 (50-74% control)
Velvetleaf; Table II, 2 WAT, 1.12 kg/h
  post-emergent herbicidal activity index: 0 (0-24% control)
Velvetleaf; Table II, 4 WAT, 5.6 kg/h
  post-emergent herbicidal activity index: 0 (0-24% control)
